Reference: patent US20150337013A1, “NOVEL ANTIBACTERIAL AGENTS FOR THE TREATMENT OF GRAM POSITIVE INFECTIONS” (priority 2008, published 2015)
Where “and” joins values, the source holds several entries; their conditions need not be identical. Identical values can stand only once. Like-named read-outs stand apart in the source and are kept apart here.

How the values were obtained:
[1] = test system: Enterococcus faecalis EFS.312, Daptomycin resistant mutant (EFA); assay type: cell-based; details: MHBc with 50 mg/L calcium, 18-20 hours at 37° C.
In short: (§1)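 CLSI M7-A7 broth microdilution, modified: MHB + 50 mg/L Ca, 5×10^5 bacteria/well, 2-fold dilutions, DMSO ≤1%, 18-20 h, 37° C, 200 rpm. Growth = visible turbidity or OD600 ≥0.1; MIC = lowest conc. without visible turbidity, μg/mL.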

[2] = test system: Enterococcus faecium EFM.14 (ATCC 6569); assay type: cell-based
In short: as §1

[3] = test system: Enterococcus faecium EFM.384, Daptomycin resistant mutant (14-A); assay type: cell-based; details: MHBc with 50 mg/L calcium, 18-20 hours at 37° C.
In short: as §1

gram positive bacteria = assay: Antimicrobial activity against a panel of organisms, summary statements; assay type: cell-based; details: statement in words
Protocol: (§2) Compounds according to Formula I were tested for antimicrobial activity against a panel of organisms. Aerobic organisms, Staphylococcus aureus, Enterococcus faecalis and E. faecium, were tested by broth microdilution according to Clinical and Laboratory Standards Institute (CLSI) document M7-A7 (Clinical and Laboratory Standards Institute. Methods for Dilution Antimicrobial Susceptibility Tests for Bacteria that Grow Aerobically; Approved Standard—Seventh Edition. CLSI document M7-A7 [ISBN 1-56238-587-9]. Clinical and Laboratory Standards Institute, 940 West Valley Road, Suite 1400, Wayne, Pa. 19087-1898 USA, 2006) with modifications as described below. Mueller Hinton Broth (MHBc) was supplemented with 50 mg/L calcium (equivalent to human physiological levels of calcium) and assay plates were incubated 18-20 hours at 37° C. with aeration (200 rpm).
(§3) In all cases the final concentration of dimethyl sulfoxide incubated with cells is less than or equal to 1%. For minimum inhibitory concentration (MIC) calculations, 2-fold dilutions of compounds were added to wells of a microtiter plate containing 5×10^5 bacteria in a final volume of 100 μL of media. Following incubation, (18-20 hours at 37° C. with aeration at 200 rpm) growth was confirmed visually by placing plates over a viewing apparatus (stand with a mirror underneath) and then the optical density (OD600) was measured using a SpectraMax 340PC^384 plate reader. Growth was defined as turbidity that could be detected with the naked eye or achieving minimum OD600of 0.1. MIC values (in μg/mL) were defined as the lowest concentration producing no visible turbidity.

[4] = test system: daptomycin resistant Staph. aureus (DRSA), daptomycin resistant E. faecium (DREfm) and daptomycin resistance E. faecalis (DREfs); assay: Activity against daptomycin resistant bacteria, summary statement; assay type: cell-based; details: statement in words
Protocol: as §2, §3

[5] = test system: Staphylococcus aureus SAU.278, Daptomycin resistant mutant (D10); assay type: cell-based; details: MHBc with 50 mg/L calcium, 18-20 hours at 37° C.
In short: as §1

[6] = test system: Staphylococcus aureus SAU.42 (ATCC 29213); assay type: cell-based
In short: as §1

[7] = test system: C. difficile spores (ATCC #43596); assay: Hamster C. difficile infection (CDAD) protection model; assay type: in vivo, Syrian golden hamsters; details: oral 0.5 mg/kg once daily for 5 days (MET 70 mg/kg three times daily for 5 days)
Protocol: Syrian golden hamsters were pretreated with 10 mg/kg clindamycin subcutaneously 24 hours before bacterial challenge. An inoculum of 20 C. difficile spores (ATCC #43596) in sterile saline was administered orally. Treatment was initiated 4 hours post-inoculation with dH2O, metronidazole (MET), vancomycin (VAN), or a compound of the present invention. Oral dosing regimens for VAN and compounds of Formula I were 0.5 mg/kg once daily for 5 days. MET was administered at 70 mg/kg three times daily for 5 days. CDAD was confirmed as the cause of death by observations at necropsy, including wet tail and/or macroscopic cecal alterations. The % protection provided by each therapy tested was calculated at 1 and 21 days post-dosing.

[8] = test system: Enterococcus faecalis EFS.201 (ATCC 49452); assay type: cell-based
In short: as §1

[9] = test system: Staphylococcus aureus SAU.399 (ATCC 43300), Methicillin and Oxacillin Resistant; assay type: cell-based
In short: as §1

[10] = MHBc with 50 mg/L calcium, 18-20 hours at 37° C.

SMILES | Efs312 MIC [1] | Efm14 MIC ([2]; ATCC 6569) [µg/mL] | Efm384 MIC [3] | as active or more active than daptomycin (gram positive bacteria) | more active against bacteria than daptomycin (gram positive bacteria) | useful against daptomycin resistant strains of bacteria [4] | C. diff MIC90 (Clostridium difficile) [µg/mL] | Sa278 MIC [5] | Sa42 MIC ([6]; ATCC 29213) [µg/mL] | Mean % Protection 1 Day Post Dosing [7] [%] | Mean % Protection 21 Days Post Dosing [7] [%] | Efs201 MIC ([8]; ATCC 49452) [µg/mL] | Sa399 MIC ([9]; ATCC 43300) [µg/mL] | Efs201 MIC [8, 10] [µg/mL] | Efm14 MIC [2, 10] [µg/mL] | Sa399 MIC [9, 10] [µg/mL] | Sa42 MIC [6, 10] [µg/mL]
CCCCCOc1ccc(-c2ccc(C(=O)N[C@@H](Cc3c[nH]c4ccccc34)C(=O)N[C@H](CC(N)=O)C(=O)N[C@@H](CC(=O)O)C(=O)N[C@@H]3C(=O)NCC(=O)N[C@@H](CCCN)C(=O)N[C@@H](CC(=O)O)C(=O)N[C@H](C)C(=O)N[C@@H](CC(=O)O)C(=O)NCC(=O)N[C@H](CO)C(=O)N[C@@H]([C@H](C)CC(=O)O)C(=O)N[C@@H](CC(=O)c4ccccc4N)C(=O)O[C@@H]3C)cc2)cc1 [Compound 61, N-[4′-(pentyloxy)biphenyl-4-carbonyl]-L-tryptophyl-D-asparaginyl-L-α-aspartyl-L-threonylglycyl-L-ornithyl-L-α-aspartyl-D-alanyl-L-α-aspartylglycyl-D-seryl-(3R)-3-methyl-L-α-glutamyl-(αS)-α,2-diamino-γ-oxobenzenebutanoic acid (13→4)-lactone] | 4 µg/mL | 0.5 | 2 µg/mL and 1 µg/mL | as active or more active than daptomycin | more effective than daptomycin | useful against daptomycin resistant strains of bacteria | 2 |  |  |  |  |  |  |  |  |  | 
CCCCCC1CCC(C(=O)N[C@@H](Cc2c[nH]c3ccccc23)C(=O)N[C@H](CC(N)=O)C(=O)N[C@@H](CC(=O)O)C(=O)N[C@@H]2C(=O)NCC(=O)N[C@@H](CCCN)C(=O)N[C@@H](CC(=O)O)C(=O)N[C@H](C)C(=O)N[C@@H](CC(=O)O)C(=O)NCC(=O)N[C@H](CO)C(=O)N[C@@H]([C@H](C)CC(=O)O)C(=O)N[C@@H](CC(=O)c3ccccc3N)C(=O)O[C@@H]2C)CC1 (stereo partly shown) [Compound 16] | 16 µg/mL and >32 µg/mL |  | 32 µg/mL and 16 µg/mL | as active or more active than daptomycin |  |  |  | 8 µg/mL | 0.5 | 100 | 85 |  |  |  |  |  | 
CCCCc1ccc(/C(C)=C/C(=O)N[C@@H](Cc2c[nH]c3ccccc23)C(=O)N[C@H](CC(N)=O)C(=O)N[C@@H](CC(=O)O)C(=O)N[C@@H]2C(=O)NCC(=O)N[C@@H](CCCN)C(=O)N[C@@H](CC(=O)O)C(=O)N[C@H](C)C(=O)N[C@@H](CC(=O)O)C(=O)NCC(=O)N[C@H](CO)C(=O)N[C@@H]([C@H](C)CC(=O)O)C(=O)N[C@@H](CC(=O)c3ccccc3N)C(=O)O[C@@H]2C)cc1 [Compound 48, N-{1-[(E)-3-(4-butylphenyl)but-2-enoyl]}-L-tryptophyl-D-asparaginyl-L-α-aspartyl-L-threonylglycyl-L-ornithyl-L-α-aspartyl-D-alanyl-L-α-aspartylglycyl-D-seryl-(3R)-3-methyl-L-α-glutamyl-(αS)-α,2-diamino-γ-oxobenzenebutanoic acid (13→4)-lactone] | >32 µg/mL and 32 µg/mL | 2 | 32 µg/mL | as active or more active than daptomycin |  | useful against daptomycin resistant strains of bacteria | 2 | 2 µg/mL and 4 µg/mL |  |  |  | 1 |  |  |  |  | 
Cc1ncc([N+](=O)[O-])n1CCO [Metronidazole, 2-methyl-5-nitro-1H-imidazole-1-ethanol, reference compound] |  |  |  |  |  |  |  |  |  | 100 | 0 |  |  |  |  |  | 
CN[C@H](CC(C)C)C(=O)N[C@H]1C(=O)N[C@@H](CC(N)=O)C(=O)N[C@H]2C(=O)N[C@H]3C(=O)N[C@H](C(=O)N[C@H](C(=O)O)c4cc(O)cc(O)c4-c4cc3ccc4O)[C@H](O)c3ccc(c(Cl)c3)Oc3cc2cc(c3O[C@@H]2O[C@H](CO)[C@@H](O)[C@H](O)[C@H]2O[C@H]2C[C@](C)(N)[C@H](O)[C@H](C)O2)Oc2ccc(cc2Cl)[C@H]1O [Vancomycin, vancomycin, reference compound] |  |  |  |  |  |  |  |  |  | 90 | 62 |  |  |  |  |  | 
C[C@H](CC(=O)O)[C@@H]1NC(=O)[C@@H](CO)NC(=O)CNC(=O)[C@H](CC(=O)O)NC(=O)[C@@H](C)NC(=O)[C@H](CC(=O)O)NC(=O)[C@H](CCCN)NC(=O)CNC(=O)[C@@H](NC(=O)[C@H](CC(=O)O)NC(=O)[C@@H](CC(N)=O)NC(=O)[C@H](Cc2c[nH]c3ccccc23)NC(=O)C2CCCCCCCCCCC2)[C@@H](C)OC(=O)[C@H](CC(=O)c2ccccc2N)NC1=O [Compound 28, N-cyclododecanecarbonyl-L-tryptophyl-D-asparaginyl-L-α-aspartyl-L-threonylglycyl-L-ornithyl-L-α-aspartyl-D-alanyl-L-α-aspartylglycyl-D-seryl-(3R)-3-methyl-L-α-glutamyl-(αS)-α,2-diamino-γ-oxobenzenebutanoic acid (13→4)-lactone] | >32 µg/mL |  | 32 µg/mL | as active or more active than daptomycin |  |  | 4 | 4 µg/mL and 8 µg/mL |  | 100 | 100 |  |  |  |  |  | 
CCCCCCCCCCC(=O)N[C@@H](Cc1c[nH]c2ccccc12)C(=O)N[C@H](CC(N)=O)C(=O)N[C@@H](CC(=O)O)C(=O)N[C@@H]1C(=O)NCC(=O)N[C@@H](CCCN)C(=O)N[C@@H](CC(=O)O)C(=O)N[C@H](C)C(=O)N[C@@H](CC(=O)O)C(=O)NCC(=O)N[C@H](CO)C(=O)N[C@@H]([C@H](C)CC(=O)O)C(=O)N[C@@H](CC(=O)c2ccccc2N)C(=O)O[C@@H]1C [Compound 2] | 32 µg/mL | 2 | >32 µg/mL |  |  |  | 4 | 8 µg/mL | 2 |  |  | 2 | 0.5 |  |  |  | 
CCCCCC1CCC(NC(=O)N[C@@H](Cc2c[nH]c3ccccc23)C(=O)N[C@H](CC(N)=O)C(=O)N[C@@H](CC(=O)O)C(=O)N[C@@H]2C(=O)NCC(=O)N[C@@H](CCCN)C(=O)N[C@@H](CC(=O)O)C(=O)N[C@H](C)C(=O)N[C@@H](CC(=O)O)C(=O)NCC(=O)N[C@H](CO)C(=O)N[C@@H]([C@H](C)CC(=O)O)C(=O)N[C@@H](CC(=O)c3ccccc3N)C(=O)O[C@@H]2C)CC1 (stereo partly shown) [Compound 17] | >32 µg/mL |  | 16 µg/mL |  |  |  | 1 | 0.25 µg/mL |  |  |  |  |  | 1 | 1 | 0.25 | 0.25
